ChEMBL document CHEMBL1201862, “PubChem BioAssay data set” (2004)
Structures can show the parent of a compound that is named as a salt.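 Five compound concentrations were applied to cells in 96-well plates for 48 hours; endpoints were derived by simple linear interpolation of the resulting dose-response curve. GI50 marks 50% less growth.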 The source made the active and inactive calls. Cut-off read from the data, not from the text of the source: active = GI50 up to about 1.1 µM and inactive = higher.

Columns and labels:
Assay in all cases: DTP human tumour cell line panel, 48 h
A549 = test system: A549
CCRF-CEM = test system: CCRF-CEM
COLO 205 = test system: COLO 205
EKVX = test system: EKVX
HCT-116 = test system: HCT-116
HT-29 = test system: HT-29
Hs-578T = test system: Hs-578T
MDA-MB-231 = test system: MDA-MB-231
Malme-3M = test system: Malme-3M
NCI-H460 = test system: NCI-H460
NCI-H522 = test system: NCI-H522
OVCAR-5 = test system: OVCAR-5
OVCAR-8 = test system: OVCAR-8
PC-3 = test system: PC-3
SK-MEL-2 = test system: SK-MEL-2
SK-MEL-5 = test system: SK-MEL-5
SN12C = test system: SN12C
SNB-19 = test system: SNB-19
T47D = test system: T47D
UACC-62 = test system: UACC-62

Measured: GI50

COc1ccc(OC)c2c(=S)c3ccccc3[nH]c12
inactive: A549 > 100 µM | CCRF-CEM 35.3 µM | COLO 205 55.2 µM | EKVX > 90.2 µM | HCT-116 64.6 µM | HT-29 64.6 µM | Hs-578T > 100 µM | MDA-MB-231 > 100 µM | Malme-3M 84.9 µM | NCI-H460 > 63 µM | NCI-H522 49.1 µM | OVCAR-5 > 94.8 µM | OVCAR-8 > 73.5 µM | PC-3 78.5 µM | SK-MEL-2 > 100 µM | SK-MEL-5 22.2 µM | SN12C > 100 µM | SNB-19 > 100 µM | T47D > 100 µM | UACC-62 60.1 µM

C=C1CC/C=C(\C)CCC[C@H](C)[C@@H](O)[C@@H]2OC(=O)C(=C)[C@@H]2C[C@H]1O
inactive: A549 17.1 µM | CCRF-CEM 1.14 µM | COLO 205 2.83 µM | EKVX 5.73 µM | HCT-116 6.47 µM | HT-29 4.22 µM | Hs-578T 7.91 µM | MDA-MB-231 14.9 µM | Malme-3M 5.96 µM | NCI-H460 8.99 µM | NCI-H522 1.84 µM | OVCAR-5 17.3 µM | OVCAR-8 4.71 µM | PC-3 10 µM | SK-MEL-2 13.3 µM | SK-MEL-5 5.05 µM | SN12C 5.93 µM | SNB-19 14.8 µM | T47D 8.24 µM | UACC-62 8.91 µM

O=C(O)c1nn[nH]c1Cl
inactive: A549 > 100 µM | CCRF-CEM > 100 µM | COLO 205 > 100 µM | EKVX > 100 µM | HCT-116 > 100 µM | HT-29 > 100 µM | Hs-578T > 100 µM | MDA-MB-231 > 100 µM | Malme-3M > 100 µM | NCI-H460 > 100 µM | NCI-H522 > 100 µM | OVCAR-5 > 100 µM | OVCAR-8 > 100 µM | PC-3 > 100 µM | SK-MEL-2 > 100 µM | SK-MEL-5 > 100 µM | SN12C > 100 µM | T47D > 100 µM | UACC-62 > 100 µM

CN(C)c1ccc(/C=N/c2nc3cc4sc(/N=C/c5ccc(N(C)C)cc5)nc4cc3s2)cc1
inactive: A549 12.8 µM | CCRF-CEM 6.3 µM | COLO 205 4.75 µM | EKVX > 100 µM | HCT-116 30.5 µM | HT-29 34.1 µM | Hs-578T 18.1 µM | MDA-MB-231 > 100 µM | Malme-3M > 100 µM | NCI-H460 5.4 µM | NCI-H522 9.98 µM | OVCAR-5 > 100 µM | OVCAR-8 76 µM | PC-3 > 100 µM | SK-MEL-2 > 100 µM | SK-MEL-5 > 100 µM | SN12C 83.9 µM | SNB-19 77.6 µM | T47D 42.5 µM | UACC-62 > 100 µM

O=C(/C=C/c1ccc([N+](=O)[O-])cc1)N1CCN(CCOC(c2ccc(F)cc2)c2ccc(F)cc2)CC1
inactive: A549 12 µM | CCRF-CEM 7.01 µM | COLO 205 11.5 µM | EKVX > 100 µM | HCT-116 9.64 µM | HT-29 13 µM | Hs-578T > 100 µM | MDA-MB-231 > 100 µM | Malme-3M > 100 µM | NCI-H460 11.3 µM | NCI-H522 63.5 µM | OVCAR-5 > 100 µM | OVCAR-8 8.87 µM | PC-3 > 100 µM | SK-MEL-2 > 100 µM | SK-MEL-5 13.9 µM | SN12C 4.04 µM | SNB-19 > 100 µM | T47D 4.74 µM | UACC-62 13.8 µM

Oc1ccc(Cl)cc1-c1cc(-c2ccccc2)nc(NCN2CCCCC2)n1
inactive: A549 > 100 µM | COLO 205 > 100 µM | EKVX > 100 µM | HCT-116 6.68 µM | HT-29 > 100 µM | Hs-578T > 100 µM | MDA-MB-231 > 100 µM | Malme-3M > 100 µM | NCI-H460 > 100 µM | NCI-H522 > 100 µM | OVCAR-5 > 100 µM | OVCAR-8 > 100 µM | PC-3 > 100 µM | SK-MEL-2 > 100 µM | SK-MEL-5 15.8 µM | SN12C > 100 µM | SNB-19 > 100 µM | T47D > 100 µM | UACC-62 > 100 µM

COC(=O)[C@]12CC=C3O[C@@H]4OC5(CCCCC5)O[C@@H]4[C@H]3C1C(=O)C=CC2=O (some centres not stated)
inactive: A549 32.1 µM | CCRF-CEM 4.13 µM | COLO 205 15.7 µM | EKVX 33.2 µM | HCT-116 17.5 µM | HT-29 17.9 µM | Hs-578T 26.1 µM | MDA-MB-231 16.8 µM | Malme-3M 17.9 µM | NCI-H460 22.3 µM | NCI-H522 5.53 µM | OVCAR-5 20.5 µM | OVCAR-8 20.2 µM | PC-3 24.9 µM | SK-MEL-2 22.2 µM | SK-MEL-5 18.6 µM | SN12C 18.4 µM | SNB-19 38.3 µM | T47D 17.1 µM | UACC-62 16 µM

Cn1c(N)cc(=O)nc1N
inactive: A549 > 100 µM | CCRF-CEM > 100 µM | COLO 205 > 100 µM | EKVX > 100 µM | HCT-116 > 100 µM | HT-29 > 100 µM | Hs-578T > 100 µM | MDA-MB-231 > 100 µM | Malme-3M > 100 µM | NCI-H460 > 100 µM | NCI-H522 > 100 µM | OVCAR-5 > 100 µM | OVCAR-8 > 100 µM | PC-3 > 100 µM | SK-MEL-2 > 100 µM | SK-MEL-5 > 100 µM | SN12C > 100 µM | SNB-19 > 100 µM | T47D > 100 µM | UACC-62 > 100 µM

CC[C@H](C)[C@H]1NC(=O)[C@@H](NC(=O)[C@@H](CC(C)C)N(C)C(=O)C2CCCN2C(=O)[C@H](C)O)[C@@H](C)OC(=O)[C@H](Cc2ccccc2)N(C)C(=O)[C@@H]2CCCN2C(=O)[C@H](CC(C)C)NC(=O)[C@@H](C)C(=O)[C@H](C(C)C)OC(=O)C[C@@H]1O (some centres not stated)
active: A549 < 0.00625 µM | CCRF-CEM < 0.00625 µM | COLO 205 < 0.00625 µM | EKVX < 0.00625 µM | HCT-116 < 0.00625 µM | HT-29 < 0.00625 µM | Hs-578T < 0.00625 µM | MDA-MB-231 < 0.00625 µM | Malme-3M < 0.00625 µM | NCI-H460 < 0.00625 µM | NCI-H522 < 0.00625 µM | OVCAR-5 < 0.00625 µM | OVCAR-8 < 0.00625 µM | PC-3 < 0.00625 µM | SK-MEL-2 < 0.00625 µM | SK-MEL-5 < 0.00625 µM | SN12C < 0.00625 µM | SNB-19 < 0.00625 µM | T47D < 0.00625 µM | UACC-62 < 0.00625 µM

CN(C)CCOc1ccc(/C(=C(/CCCl)c2ccccc2)c2ccccc2)cc1 [TOREMIFENE CITRATE]
inactive: A549 16.3 µM | CCRF-CEM 6.1 µM | COLO 205 19.4 µM | EKVX 15.9 µM | HCT-116 16.7 µM | HT-29 5.81 µM | Hs-578T 17.2 µM | MDA-MB-231 16.4 µM | Malme-3M 17.9 µM | NCI-H460 15.7 µM | NCI-H522 16.5 µM | OVCAR-5 18.1 µM | OVCAR-8 17.7 µM | PC-3 16.4 µM | SK-MEL-2 15.5 µM | SK-MEL-5 16 µM | SN12C 16.7 µM | SNB-19 15 µM | T47D 11.6 µM
